In this assay the test system is HepG2 ERK1/2 phosphorylation, Western blot imaging. In words: phospho-ERK1/2 induction in hepatoma cells – cell-based, HepG2, Western blot imaging, cherry-pick, mechanism study for Trib1 inducer project, late-stage follow-up (AID 1053148). Conditions: active compounds read high. Background: In western blotting, separated proteins are transferred to a membrane and probed.

Consider `CN1C(=O)c2cc(NC(=O)c3ccc(C(F)(F)F)cc3)ccc2OC[C@@H]2O[C@H](CC(=O)NC3Cc4ccccc4C3)CC[C@@H]21`, for which the fold induction x10 was 2.

For the origin of these results see PubChem BioAssay AID1053148 (Broad Institute, 2014).
